The subject of data set [1] is capsaicin-induced eye-wiping movements in mice. In words: Eye-wiping assay in mice, effect on capsaicin-induced wiping. Particulars: for Capsaicin-induced wiping movements after Palvanil: same eye. It counts as in vivo, mouse.
Data set [2] has as its system eye-wiping movements in mice. Conditions: mouse.
In data set [3] the target is T1, recombinant human TRPV1 (HEK-293 cells) (Homo sapiens, UniProt Q8NER1).
T1 construct: expressed in transfected cells
In words: Desensitization of capsaicin (10 nM)-induced TRPV1-mediated elevation of intracellular [Ca2+]. It counts as cell-based.

Data set [4] concerns the target T1, recombinant human TRPV1 (HEK-293 cells). The experiment in a line: Desensitization of anandamide/low pH-induced TRPV1-mediated elevation of intracellular [Ca2+]. Particulars: for IC50: read-out: IC50, desensitization of anandamide effect. It counts as cell-based.
Data set [5] has the same target. The experiment in a line: TRPV1-mediated elevation of intracellular [Ca2+] (agonist activity). It counts as cell-based.

T1 sequence (Q8NER1 whole entry): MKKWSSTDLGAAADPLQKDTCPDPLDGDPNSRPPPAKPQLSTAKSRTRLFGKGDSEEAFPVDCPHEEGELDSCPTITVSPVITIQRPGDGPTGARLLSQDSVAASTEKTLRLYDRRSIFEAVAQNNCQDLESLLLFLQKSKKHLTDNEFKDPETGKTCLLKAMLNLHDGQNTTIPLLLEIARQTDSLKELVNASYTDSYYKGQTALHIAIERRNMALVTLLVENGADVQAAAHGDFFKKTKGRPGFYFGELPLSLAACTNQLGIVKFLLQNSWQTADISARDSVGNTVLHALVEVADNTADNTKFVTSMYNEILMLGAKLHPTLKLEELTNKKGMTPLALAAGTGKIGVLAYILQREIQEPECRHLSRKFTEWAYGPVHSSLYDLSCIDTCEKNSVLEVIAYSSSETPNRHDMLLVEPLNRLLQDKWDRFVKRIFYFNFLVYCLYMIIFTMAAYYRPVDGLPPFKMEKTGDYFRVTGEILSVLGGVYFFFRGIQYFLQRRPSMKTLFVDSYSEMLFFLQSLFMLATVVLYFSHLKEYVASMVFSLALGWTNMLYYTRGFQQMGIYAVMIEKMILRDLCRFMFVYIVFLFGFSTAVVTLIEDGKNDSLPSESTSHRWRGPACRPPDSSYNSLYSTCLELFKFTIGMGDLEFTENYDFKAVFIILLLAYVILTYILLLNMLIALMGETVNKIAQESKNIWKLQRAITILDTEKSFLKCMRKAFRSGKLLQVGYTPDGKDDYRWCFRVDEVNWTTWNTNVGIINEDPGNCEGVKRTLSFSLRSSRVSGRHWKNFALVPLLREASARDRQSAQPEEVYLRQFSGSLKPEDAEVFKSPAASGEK

Take `C=C(C)[C@]12C[C@@H](C)[C@@]34O[C@](Cc5ccccc5)(O[C@@H]1[C@@H]3C=C(COC(=O)Cc1cc(I)c(O)c(OC)c1)C[C@]1(O)C(=O)C(C)=C[C@@H]41)O2` [I-RTX, 5′-iodo-resiniferatoxin, reference compound]: the “Effect of I-RTX pre-treatment on Palvanil's reduction of capsaicin-induced wiping” value in data set [1] (mouse, in vivo) is on record as “completely reverted”. Further, in data set [2] (in vivo), the “Eye-wiping reflexes per se” value is on record as “did not cause any reflexes per se”.
As for `CCCCCCCCCCCCCCCC(=O)NCc1ccc(O)c(OC)c1` [Palvanil, N-(4-hydroxy-3-methoxybenzyl)palmitoylamide], the “Pre-incubation time at which desensitizing effect reached a maximum” value in data set [3] (2 nM Palvanil, 10 nM capsaicin stimulation) is recorded as roughly 50 min. Further, the IC50 (usually the point on the concentration scale where inhibition reaches its midpoint) in data set [3] (read-out: IC50, desensitization of TRPV1 to the effect of capsaicin, 10 nM capsaicin, compound given 5 min before) came out at 810 ± 70 pM; in data set [4] (0.5 μM AEA, acid pH (6.5)) it was 300 ± 10 pM; in data set [4] (0.5 μM AEA, physiological pH (7.4)) it was 900 ± 100 pM; in data set [4] (anandamide 0.25 mM (so in the source), acid pH), 500 ± 20 pM. Also, the “Inhibitory effect on anandamide response” value in data set [4] (1 nM compound, 0.5 μM AEA, at both pH values) is greater than 50%. In data set [4] (0.5 μM AEA, pH 6.5 vs pH 7.4), the “Fold more potent at the lower pH” value worked out at 90 fold. Besides, the “Capsaicin-induced wiping movements after Palvanil” value in data set [1] (Palvanil 10 μg/ml, 1 hour before capsaicin 10 μg/ml) worked out at 8.2±0.9 wiping movements; in data set [1] (Palvanil 10 μg/ml, 3 hours before capsaicin 10 μg/ml), 7.0±0.9 wiping movements; in data set [1] (Palvanil 30 μg/ml, 1 hour before capsaicin 10 μg/ml) it was 6.7±0.7 wiping movements; in data set [1] (Palvanil 30 μg/ml, 3 hours before capsaicin 10 μg/ml), 6.0±0.8 wiping movements. For the same compound, the EC50 (commonly the concentration needed to bring the measured effect to its halfway point) in data set [5] (HEK-293-TRPV1 cells, Fluo-4, read-out: EC50, increase in intracellular calcium) stood at 650 ± 40 pM.
Consider `COc1cc(CNC(=O)CCCC/C=C/C(C)C)ccc1O` [capsaicin, reference compound], for which the “Desensitizing effect at different pre-incubation times, compared with Palvanil” value in data set [3] (10 nM capsaicin pre-incubation, 10 nM capsaicin stimulation) is reported as “significantly less pronounced desensitizing effect”. Further, the “Wiping movements monitored within 30 seconds” value in data set [2] (capsaicin solution 10 μg/ml into the eye) is given as 12±0.9 wiping movements. The “Speed of TRPV1 activation (time to achieve 90% of total TRPV1 mediated calcium influx)” value in data set [5] (different concentrations, greatest difference at 1 μM, capsaicin vs Palvanil) is “always significantly faster”.

The values above are taken from patent publication US8546352B2, “Pharmacological preparation for topical use containing N-palmitoyl-vanillamide” (Epitech Group S.r.l., priority 2010, dated 2013).
